In patent US20250281465A1, “MOLECULES THAT ENHANCE EXTRACELLULAR VESICLE RELEASE” (priority 2022, published 2025):
“Also recorded” adds a separate entry of the source.

What was measured:
mBMDCs [1] = assay: EV release from mBMDCs (differential ultracentrifugation, MRPS); settings: 10 μM, 46-48 h, vs Veh
mBMDCs [2] = assay: Cell viability / cytotoxicity in mBMDCs (MTT); assay type: cell-based, mouse; settings: for cytotoxicity of Ca influx inhibitors / chelators in mBMDC culture: 48 hours culture; for toxicity in exosome-depleted FBS medium: mBMDCs, 10 μM, 48 hours, MTT
Procedure: FIGS. 30A-30B. […] After 48 hours incubation, cell viability was determined by MTT assay.
mBMDCs (10^5 cells/200 μL/well) were treated with 10 and 5 μM of a test compound in 96-well plates overnight. After 18 hours of drug treatment, MTT (0.5 mg/ml) was added to each well. The cells were lysed after 6-8 hours incubation, and absorbance values at 570 and 650 nm were measured. PrestoBlue reagent (#A13261, Thermo Fisher Scientific) was used for cell viability assay in CD63 HTS as described earlier.
Cell viability assay. mBMDCs (2×10^6 cells/200 μL/well in RPMI1640 supplemented with dialyzed 10% FBS, or 1.5×10^6 cells/200 μL/well in RPMI1640 supplemented with 10% exosome depleted FBS) were treated with 10 μM of each test compound in 96-well plates. After 46-48 hours of compound treatment, MTT (0.5 mg/mL) was added to each well. The cells were lysed after overnight incubation, and absorbance values at 570 and 650 nm were measured.

TLR4 = TLR4 agonism in murine and human HEK-TLR4 reporter cells; assay type: cell-based
Source text: FIG. 37. TLR4 agonism assays with analogs of 2B182c in human and murine TLR4 reporter cells.

mBMDCs [3] = assay: Intracellular Ca2+ influx (Fura-2/Fura-8) in mBMDCs; assay type: cell-based, mouse; settings: 10 μM, vs Veh 0.5% DMSO / #634
[4] = system: CD63-Tluc-CD9-EmGFP THP-1 reporter cells; assay: CD63 Tluc-CD9 EmGFP THP-1 reporter cell assay (EV/exosome release); assay type: cell-based, human; settings: 634 analogs 10 μM, 48 hours
Procedure: All these analogs were evaluated for induction of IL-12 cytokine at 10 μM, followed by dose response IL-12 induction for selected analogs. These analogs were also evaluated for exosome release by quantitating EV release in the supernatant post 48 hours incubation with CD63-Tluc-CD9-EmGFP THP-1 reporter cells.
In the HTS using CD63-Tluc-CD9EmGFP reporter cells (CD63 HTS), PMA (10 ng/ml) was used as a positive control (Shpigelman et al., 2021) and 0.5% DMSO was used as negative control (vehicle, Veh). Briefly, the harvested cells were resuspended in assay media containing 10% exosome-depleted […] (#A2720801, Thermo Fisher Scientific) and plated at 2×10^5 cells/mL (50 μL/well of 384-well plates) (#3674, Corning). Test compounds were added at a final concentration of 10 μM to cells and incubated for 48 hours at 37° C. Subsequently, the plate was centrifuged, supernatant (25 μL) was transferred, and chemiluminescent was measured as recombinant luciferase activity (RLU) after 10 minutes incubation with TurboLuc assay reagent (TurboLuc™ One-Step Glow Assay kit, Thermo Fisher Scientific). The response that measures activation and subsequent release of EVs was calculated using the following formula; % response=100×(compound RLU−average Veh RLU)/(average PMA RLU−average Veh RLU). The viability of cells was assessed using PrestoBlue reagent (Thermo Fisher Scientific). Briefly, PrestoBlue reagent (2.5 μl) was added to the remaining cells and incubated for 30 minutes at room temperature, followed by fluorescence readout at (Ex 560 nm/Em 590 nm) which was normalized to fluorescence data of the Veh wells within the plate to obtain “% viability” calculated as 100×(compound fluorescence/average Veh fluorescence).
CD63 Tluc-CD9 EmGFP THP-1 reporter cell assay. CD63 Tluc CD9 EmGFP THP-1 reporter cell (designated as CD63 Tluc reporter cells) were incubated with 10 μM test compounds, ION (1 μM), or 0.5% DMSO (negative control) in the RPMI 1640 supplemented with exosome-depleted FBS at 5×10^4 cells in 200 μL/well for a 96-well plate for 48 hours at 37° C. Subsequently, the plate was centrifuged, the supernatant was transferred, and chemiluminescence was measured by TurboLuc™ Luciferase One-Step Glow Assay Kit. The response that measures activation and subsequent release of EVs was calculated using the following formula; % response=100×(compound RLU−average Veh RLU)/(average PMA RLU−average Veh RLU).

Structure (SMILES) | TLR4 agonistic activity (TLR4) | intracellular Ca^2+ influx by 634 and its SAR analogs (Fura-2) (mBMDCs [3]) | further results
CC(=O)OCOC(=O)CN(CC(=O)OCOC(C)=O)c1ccccc1OCCOc1ccccc1N(CC(=O)OCOC(C)=O)CC(=O)OCOC(C)=O [BAPTA-AM, reference compound] |  |  | number of EV particles released in the culture supernatant (mBMDCs [1]): increased EV release by mBMDC; also recorded: enhanced particle release from dead and dying cells; cytotoxicity of Ca influx inhibitors / chelators in mBMDC culture (mBMDCs [2]): cytotoxic; also recorded: toxic
Cn1c2ccc(-c3ccco3)cc2c2nc(SCC(=O)NC3CCCCC3)n(-c3cccc(N)c3)c(=O)c21 [2G023a] | equipotent to compound 28182c |  | 
COC(=O)c1c(NS(=O)(=O)c2cccc3c2N=S=N3)sc(C)c1C [2G179a, Methyl 2-(benzo[c][1,2,5]thiadiazole-4-sulfonamido)-4,5-dimethylthiophene-3-carboxylate] |  | Ca^2+ influx positive | 
Cc1sc(NS(=O)(=O)c2cccc3nsnc23)c(C(=O)OCc2ccccc2)c1C [2G179f, Benzyl 2-(benzo[c][1,2,5]thiadiazole-4-sulfonamido)-4,5-dimethylthiophene-3-carboxylate] |  |  | toxicity in exosome-depleted FBS medium (mBMDCs [2]): higher toxicity
Cc1sc(NS(=O)(=O)c2cccc3nsnc23)c(C(=O)OC2CCCCC2)c1C [2G179e, Cyclohexyl 2-(benzo[c][1,2,5]thiadiazole-4-sulfonamido)-4,5-dimethylthiophene-3-carboxylate] |  |  | toxicity in exosome-depleted FBS medium (mBMDCs [2]): higher toxicity
CCCCCCOC(=O)c1c(NS(=O)(=O)c2cccc3nsnc23)sc(C)c1C [2G179b, Hexyl 2-(benzo[c][1,2,5]thiadiazole-4-sulfonamido)-4,5-dimethylthiophene-3-carboxylate] |  | increased intracellular Ca^2+ levels more than that of #634 | toxicity in exosome-depleted FBS medium (mBMDCs [2]): higher toxicity
CCCCCCCCC(=O)Nc1cccc(-n2c(SCC(=O)NC3CCCCC3)nc3c4cc(-c5ccco5)ccc4n(C)c3c2=O)c1 [2G113] | did not retain equal potency |  | 
CCCOC(=O)c1c(NS(=O)(=O)c2cccc3c2N=S=N3)sc(C)c1C [2G176, Propyl 2-(benzo[c][1,2,5]thiadiazole-4-sulfonamido)-4,5-dimethylthiophene-3-carboxylate] |  | Ca^2+ influx positive | 
Cc1sc(NS(=O)(=O)c2cccc3nsnc23)c(C(=O)Oc2ccccc2)c1C [2G179g, Phenyl 2-(benzo[c][1,2,5]thiadiazole-4-sulfonamido)-4,5-dimethylthiophene-3-carboxylate] |  | lost potency; also recorded: Ca^2+ influx positive | 
CCOC(=O)c1c(N(C)S(=O)(=O)c2cccc3c2N=S=N3)sc(C)c1C [2F186, Ethyl 4,5-dimethyl-2-(N-methylbenzo[c][1,2,5]thiadiazole-4-sulfonamido)thiophene-3-carboxylate] |  | did not induce Ca^2+ influx in mBMDCs; also recorded: negative | luciferase activities in the culture supernatant of CD63 Tluc reporter cells [4]: did neither increase luciferase activities
Cc1nnsc1C(=O)Nc1ccc(-n2nc(C(F)(F)F)cc2C(F)(F)F)cc1 [BTP2, reference compound] |  |  | number of EV particles released in the culture supernatant (mBMDCs [1]): increased EV release by mBMDC; cytotoxicity of Ca influx inhibitors / chelators in mBMDC culture (mBMDCs [2]): cytotoxic
Cn1c2ccc(-c3ccco3)cc2c2nc(SCC(=O)NC3CCCCC3)n(-c3ccc(O)c(O)c3)c(=O)c21 [2E255] | completely inactive |  | 
CC(=O)Oc1cccc(-n2c(SCC(=O)NC3CCCCC3)nc3c4cc(-c5ccco5)ccc4n(C)c3c2=O)c1 [2G107] | potent |  | 
CCCCCCCC/C=C\CCCCCCCC(=O)OC[C@H](COP(=O)(O)OCCNC(=O)CCCC(=O)Oc1cccc(-n2c(SCC(=O)NC3CCCCC3)nc3c4cc(-c5ccco5)ccc4n(C)c3c2=O)c1)OC(=O)CCCCC/C=C\CCCCCCCC [2G177] | slightly less potent than 2G053; also recorded: the potency at the highest concentration was better |  | 
O=C(O)CN(CCOCCOCCN(CC(=O)O)CC(=O)O)CC(=O)O [EGTA, reference compound] |  |  | number of EV particles released in the culture supernatant (mBMDCs [1]): increased EV release by mBMDC; also recorded: enhanced particle release from dead and dying cells; cytotoxicity of Ca influx inhibitors / chelators in mBMDC culture (mBMDCs [2]): cytotoxic; also recorded: toxic
Cc1sc(NS(=O)(=O)c2cccc3nsnc23)c(C(=O)OC(C)(C)C)c1C [2G179 h, Tert-butyl 2-(benzo[c][1,2,5]thiadiazole-4-sulfonamido)-4,5-dimethylthiophene-3-carboxylate] |  |  | toxicity in exosome-depleted FBS medium (mBMDCs [2]): higher toxicity
Cc1cc(NS(=O)(=O)c2cccc3nsnc23)sc1C [2G182] |  | loss of potency | 
Cc1sc(NS(=O)(=O)c2cccc3c2N=S=N3)c(C(=O)OC(C)C)c1C [2G179c, Isopropyl 2-(benzo[c][1,2,5]thiadiazole-4-sulfonamido)-4,5-dimethylthiophene-3-carboxylate] |  | increased intracellular Ca^2+ levels more than that of #634; also recorded: Ca^2+ influx positive | 
Cn1c2ccc(-c3ccco3)cc2c2nc(SCC(=O)NC3CCCCC3)n(-c3cccc(OCOP(=O)(O)O)c3)c(=O)c21 [2G202] | weakly active |  | 
Cc1sc(NS(=O)(=O)c2cccc3nsnc23)c(C(=O)OCCC(C)C)c1C [2G179d, Isopentyl 2-(benzo[c][1,2,5]thiadiazole-4-sulfonamido)-4,5-dimethylthiophene-3-carboxylate] |  | increased intracellular Ca^2+ levels more than that of #634 | toxicity in exosome-depleted FBS medium (mBMDCs [2]): higher toxicity
CCNC(=O)c1c(NS(=O)(=O)c2cccc3c2N=S=N3)sc(C)c1C [2E241, 2-(benzo[c][1,2,5]thiadiazole-4-sulfonamido)-N-ethyl-4,5-dimethylthiophene-3-carboxamide] |  | loss of potency; also recorded: did not induce Ca^2+ influx in mBMDCs; also recorded: negative | luciferase activities in the culture supernatant of CD63 Tluc reporter cells [4]: did neither increase luciferase activities
Cc1sc(NS(=O)(=O)c2cccc3nsnc23)c(C(=O)O)c1C [2H013, 2-(benzo[c][1,2,5]thiadiazole-4-sulfonamido)-4,5-dimethylthiophene-3-carboxylic acid] |  | did not induce Ca^2+ influx in mBMDCs; also recorded: negative | luciferase activities in the culture supernatant of CD63 Tluc reporter cells [4]: did neither increase luciferase activities
CCCCCCCCC(=O)Oc1cccc(-n2c(SCC(=O)NC3CCCCC3)nc3c4cc(-c5ccco5)ccc4n(C)c3c2=O)c1 [2G108] | potent |  | 
Cn1c2ccc(-c3ccco3)cc2c2nc(SCC(=O)NC3CCCCC3)n(-c3cccc(O)c3)c(=O)c21 [2G053] | equipotent to compound 28182c |  | 
CC(=O)Nc1cccc(-n2c(SCC(=O)NC3CCCCC3)nc3c4cc(-c5ccco5)ccc4n(C)c3c2=O)c1 [2G112] | did not retain equal potency |  | 
